According to patent publication US20110245242A1, “Heterocyclically Substituted Anilinopyrimides” (Bayer CropScience AG, priority 2008, published 2011):

What was measured:
Format in all cases: physicochemical
[1] = log P by HPLC on reversed-phase columns (C 18), method [a], acidic range pH 2.3; conditions: for chromatographic logP: pH 2.3, log P (pH 2.3)
Method: The log P values were measured in accordance with EEC Directive 79/831 Annex V.A8 by HPLC (High Performance Liquid Chromatography) on reversed-phase columns (C 18) using the methods below: [a] The determination was carried out in the acidic range at pH 2.3 using the mobile phases 0.1% aqueous phosphoric acid and acetronitrile linear gradient from 10% acetonitrile to 95% acetronitrile.

[2] = log P by LC-MS, method [b], acid range pH 2.7; conditions: pH 2.7
Method: The log P values were measured in accordance with EEC Directive 79/831 Annex V.A8 by HPLC (High Performance Liquid Chromatography) on reversed-phase columns (C 18) using the methods below:
[b] The LC-MS determination in the acid range was carried out at pH 2.7 using the mobile phases 0.1% aqueous formic acid and acetonitrile (contains 0.1% formic acid)
linear gradient from 10% acetonitrile to 95% acetonitrile.

[3] = physchem; conditions: pH 7.8
Method: The log P values were measured in accordance with EEC Directive 79/831 Annex V.A8 by HPLC (High Performance Liquid Chromatography) on reversed-phase columns (C 18) using the methods below: [c] The LC-MS determination in the neutral range was carried out at pH 7.8 using the mobile phases 0.001 molar aqueous ammonium bicarbonate solution and acetonitrile linear gradient from 10% acetonitrile to 95% acetonitrile.

Row | Structure (SMILES) | log p [2] | log p [3] | chromatographic logP [1] | also measured
1 | COCC(C)Nc1nc(Nc2ccc(N3CCCC3=O)cc2)ncc1Cl (stereo not drawn) [Example 1] | 1.51[b] |  |  | log p ([1]; pH 2.3): 1.51[a];
2 | CC1CCC(=O)N1c1cccc(Nc2ncc(Cl)c(NC3CC3)n2)c1 (stereo not drawn) [Example 30] | 1.6[b] |  |  | log p ([1]; pH 2.3): 1.6[a];
3 | CSCC(C)(C)Nc1nc(Nc2ccc(N3CCOC3=O)cc2)ncc1Cl [Example 40] |  | 3.09[c] |  | 
4 | CC1CC(=O)N(c2cccc(Nc3ncc(Br)c(NC4CC4)n3)c2)C1 (stereo not drawn) [Example 99] | 1.85[b] | 2.79[c]; |  | 
5 | COCC(C)Nc1nc(Nc2cccc(N3C(=O)OCC3C)c2)ncc1Cl (stereo not drawn) [Example 118] | 1.6[b] |  |  | log p ([1]; pH 2.3): 1.6[a];
6 | C[C@@H]1CCN(c2cccc(Nc3ncc(Cl)c(NC4CC4)n3)c2)C1=O [Example 123] | 2.86[b] |  |  | log p ([1]; pH 2.3): 2.86[a];
7 | C[C@H]1CCN(c2cccc(Nc3ncc(Cl)c(NC4CC4)n3)c2)C1=O [Example 124] | 2.86[b] |  |  | log p ([1]; pH 2.3): 2.86[a];
8 | CC1CCC(=O)N1c1cccc(Nc2ncc(Cl)c(NC3CC3)n2)c1 (stereo not drawn) [Example 125] | 2.59[b] |  |  | log p ([1]; pH 2.3): 2.59[a];
9 | CC1CCC(=O)N1c1cccc(Nc2ncc(Cl)c(NC3CC3)n2)c1 (stereo not drawn) [Example 126] | 2.59[b] |  |  | log p ([1]; pH 2.3): 2.59[a];
10 | CC(C)Nc1nc(Nc2cccc(N3CCC(C)C3=O)c2)ncc1Cl (stereo not drawn) [Example 185] | 1.82[b] | 3.07[c]; |  | 
11 | CC1CCN(c2cccc(Nc3ncc(Cl)c(N(C)C4CC4)n3)c2)C1=O (stereo not drawn) [Example 186] | 2.66[b] | 3.48[c]; |  | 
12 | CC1CC(=O)N(c2cccc(Nc3ncc(Cl)c(NC4CCC4)n3)c2)C1=O (stereo not drawn) [Example 188] | 1.76[b] | 2.67[c]; |  | 
13 | CCOC(=O)[C@@H]1CCC(=O)N1c1cccc(Nc2ncc(Br)c(NC3CC3)n2)c1 [Example 191] |  | 2.65[c] |  | 
14 | CCOC(=O)[C@@H]1CCC(=O)N1c1cccc(Nc2ncc(C(F)(F)F)c(NC3CC3)n2)c1 [Example 193] | 2.56[b] | 2.82[c]; |  | 
15 | CC(C)Nc1nc(Nc2ccc(F)c(N3CCCC3=O)c2)ncc1Cl [Example 197] | 1.55[b] | 2.55[c]; |  | 
16 | CNc1nc(Nc2ccc(F)c(N3CCCC3=O)c2)ncc1Cl [Example 199] | 1.28[b] | 1.91[c]; |  | 
17 | CCNc1nc(Nc2cccc(N3CCCC3=O)c2)ncc1Cl [Example 204] | 1.29[b] | 2.24[c]; |  | 
18 | CCN(C)c1nc(Nc2cccc(N3CCCC3=O)c2)ncc1Cl [Example 207] | 1.79[b] | 2.91[c]; |  | 
19 | CCC1CC(C)C(=O)N1c1cccc(Nc2ncc(Br)c(NC3CC3)n2)c1 (stereo not drawn) [Example 208] | 2.32[b] | 3.31[c]; |  | 

Row | Structure (SMILES) | log p [2] | log p [3] | chromatographic logP [1] | also measured
20 | CCC1CC(C)C(=O)N1c1cccc(Nc2ncc(Br)c(NCC3CC3)n2)c1 (stereo not drawn) [Example 209] | 2.41[b] | 3.69[c]; |  | 
21 | CCC1CC(C)C(=O)N1c1cccc(Nc2ncc(Br)c(NC(C)C)n2)c1 (stereo not drawn) [Example 210] | 2.36[b] | 3.7[c]; |  | 
22 | CCC1CC(C)C(=O)N1c1cccc(Nc2ncc(Cl)c(NCC3CC3)n2)c1 (stereo not drawn) [Example 212] | 2.33[b] | 3.54[c]; |  | 
23 | CC1CC1Nc1nc(Nc2cccc(N3CCCCC3=O)c2)ncc1Cl (stereo not drawn) [Example 213] | 1.7[b] | 2.48[c]; |  | 
24 | O=C1CCC(=O)N1Cc1cccc(Nc2ncc(Cl)c(NC3CC3)n2)c1 [Example 235] |  | 2.32[c]; |  | 
25 | CC1CC(Nc2nc(Nc3cccc(N4CCOC4=O)c3)ncc2Cl)C1 (stereo not drawn) [Example 256] |  | 2.99[c] |  | 
26 | CC1COC(=O)N1c1cccc(Nc2ncc(C(F)(F)F)c(NC3CC3)n2)c1 (stereo not drawn) [Example 261] |  | 2.7[c]; |  | 
27 | CC(C)Nc1nc(Nc2cccc(N3C(=O)OCC3C)c2)ncc1Br (stereo not drawn) [Example 262] |  | 2.83[c]; |  | 
28 | COc1ccc(Nc2ncc(Cl)c(NC3CC3)n2)cc1N1CCCC1=O [Example 328] |  | 2.18[c]; |  | 
29 | Clc1ncc(Cl)c(N2CCSCC2)n1 [Example V-32, 4-(2,5-Dichloropyrimidin-4-yl)thiomorpholine] |  |  | 2.84 | 
30 | Clc1ncc(Cl)c(N2CCOCC2)n1 [Example V-33, 4-(2,5-Dichloropyrimidin-4-yl)morpholine] |  |  | 1.99 | 
31 | Clc1ncc(Cl)c(N2CCCC2)n1 [Example V-34, 2,5-Dichloro-4-(pyrrolidin-1-yl)pyrimidine] |  |  | 2.78 | 
32 | Clc1ncc(Cl)c(N2CCC2)n1 [Example V-35, 4-(Azetidin-1-yl)-2,5-dichloropyrimidine] |  |  | 2.11 | 
33 | Clc1ncc(Cl)c(N2CCCCC2)n1 [Example V-36, 2,5-Dichloro-4-(piperidin-1-yl)pyrimidine] |  |  | 3.52 | 
34 | CC(Nc1nc(Cl)ncc1Cl)C(F)(F)F (stereo not drawn) [Example V-37, 2,5-Dichloro-N-(1,1,1-trifluoropropan-2-yl)pyrimidin-4-amine] |  |  | 2.66 | 
35 | CCCNc1nc(Cl)ncc1Cl [Example V-38, 2,5-Dichloro-N-propylpyrimidin-4-amine] |  |  |  | log p ([1]; pH 2.3): 2.42
36 | CC1CC(Nc2nc(Cl)ncc2Cl)C1 (stereo not drawn) [Example V-39, 2,5-Dichloro-N-(3-methylcyclobutyl)pyrimidin-4-amine] |  |  | 3.2 | 
37 | CC1CC1Nc1nc(Cl)ncc1Cl (stereo not drawn) [Example V-40, 2,5-Dichloro-N-(2-methylcyclopropyl)pyrimidin-4-amine] |  |  | 2.53 | 
38 | CC1CC1Nc1nc(Cl)ncc1Br (stereo not drawn) [Example V-41, 5-Bromo-2-chloro-N-(2-methylcyclopropyl)pyrimidin-4-amine] |  |  | 2.68 | 

Row | Structure (SMILES) | log p [2] | log p [3] | chromatographic logP [1] | also measured
39 | CC1CC1Nc1nc(Cl)ncc1C(F)(F)F (stereo not drawn) [Example V-42, 2-Chloro-N-(2-methylcyclopropyl)-5-(trifluoromethyl)pyrimidin-4-amine] |  |  | 3.02 | 
40 | CCC1CC1Nc1nc(Cl)ncc1Cl (stereo not drawn) [Example V-43, 2,5-Dichloro-N-(2-ethylcyclopropyl)pyrimidin-4-amine] |  |  | 3.1 | 
41 | CCC(CC(C)C(=O)OC)[N+](=O)[O-] (stereo not drawn) [Methyl 2-methyl-4-nitrohexanoate] |  |  | 2.23 | 
42 | O=C1CCCN1c1cccc(Nc2ncc(C(F)(F)F)c(Cl)n2)c1 [VI-1, 1-(3-{[4-Chloro-5-(trifluoromethyl)pyrimidin-2-yl]amino}phenyl)pyrrolidin-2-one] |  |  | 2.98 | 
43 | O=C1CCCN1c1cc(Nc2ncc(C(F)(F)F)c(Cl)n2)ccc1F [VI-2, 1-(5-{[4-Chloro-5-(trifluoromethyl)pyrimidin-2-yl]amino}-2-fluorophenyl)pyrrolidin-2-one] |  |  | 2.84 | 
44 | O=C1CCCN1c1cccc(Nc2ncc(C(F)F)c(F)n2)c1 [VI-3, 1-(3-{[5-(Difluoromethyl)-4-fluoropyrimidin-2-yl]amino}phenyl)pyrrolidin-2-one] |  |  | 2.28 | 
45 | O=C1OCCN1c1ccc(Nc2ncc(C(F)(F)F)c(Cl)n2)cc1 [VI-4, 3-(4-{[4-Chloro-5-(trifluoromethyl)pyrimidin-2-yl]amino}phenyl)-1,3-oxazolidin-2-one] |  |  | 2.74 | log P (pH 2.3) ([1]; pH 2.3): 2.76
46 | Brc1cnc(Nc2cccc(I)c2)nc1NC1CC1 [VII-2, 5-Bromo-N^4-cyclopropyl-N^2-(3-iodophenyl)pyrimidine-2,4-diamine] |  |  | 3.34 | 
47 | FC(F)(F)Oc1ccc(Nc2ncc(Cl)c(NC3CC3)n2)cc1Br [VII-3, 5-Chloro-N^2-[3-bromo-4-(trifluoromethoxy)phenyl]-N^4-cyclopropylpyrimidine-2,4-diamine] |  |  | 3.99 | 
48 | Cc1ccc(Nc2ncc(Cl)c(NC3CC3)n2)cc1Br [VII-4, 5-Chloro-N^2-[3-bromo-4-(methyl)phenyl]-N^4-cyclopropylpyrimidine-2,4-diamine] |  |  | 2.91 | 
49 | Clc1cnc(Nc2cccc(Br)c2)nc1NC1CC1 [VII-5, N^2-(3-Bromophenyl)-5-chloro-N^4-cyclopropylpyrimidine-2,4-diamine] |  |  | 2.91 | 
50 | Clc1ccc(Nc2ncc(Cl)c(NC3CC3)n2)cc1Br [VII-6, N^2-(3-Bromo-4-chlorophenyl)-5-chloro-N^4-cyclopropylpyrimidine-2,4-diamine] |  |  | 3.55 | 
51 | FC(F)(F)c1cc(Br)cc(Nc2ncc(Cl)c(NC3CC3)n2)c1 [VII-7, N^2-[3-Bromo-5-(trifluoromethyl)phenyl]-5-chloro-N^4-cyclopropylpyrimidine-2,4-diamine] |  |  | 4.6 | 
52 | Clc1cnc(Nc2ccc(Br)cc2)nc1NC1CC1 [VII-8, N^2-(4-Bromophenyl)-5-chloro-N^4-cyclopropylpyrimidine-2,4-diamine] |  |  | 2.55 | 
53 | Brc1ccc(Nc2ncc(Br)c(NCC3CC3)n2)cc1 [VII-9, 5-Bromo-N^2-(4-bromophenyl)-N^4-(cyclopropylmethyl)pyrimidine-2,4-diamine] |  |  | 2.84 | 
54 | Brc1ccc(Nc2ncc(Br)c(NC3CCC3)n2)cc1 [VII-10, 5-Bromo-N^2-(4-bromophenyl)-N^4-cyclobutylpyrimidine-2,4-diamine] |  |  | 3.18 | 
55 | Brc1ccc(Nc2ncc(Br)c(NC3CC3)n2)cc1 [VII-11, 5-Bromo-N^2-(4-bromophenyl)-N^4-cyclopropylpyrimidine-2,4-diamine] |  |  | 2.7 | 
56 | Clc1cnc(Nc2ccc(I)cc2)nc1NC1CCC1 [VII-12, 5-Chloro-N^4-cyclobutyl-N^2-(4-iodophenyl)pyrimidine-2,4-diamine] |  |  | 3.49 | 
